Test results from PMC5218480 (PLoS ONE, 2017).

System: MV-4-11 cells
Assay: Gene expression microarray analysis (Affymetrix PrimeView) and GSEA
Type: cell-based, human
Parameters: RFU PODN (11730768_x_at) / Fold change /veh PODN (11730768_x_at) / RFU LINC00158 (11744669_a_at) / Fold change /veh LINC00158 (11744669_a_at) / RFU DUSP10 (11751237_a_at) / Fold change /veh DUSP10 (11751237_a_at) / RFU ID3 (11757404_x_at) / Fold change /veh ID3 (11757404_x_at) / RFU PLEKHG5 (11737974_s_at) / Fold change /veh PLEKHG5 (11737974_s_at) / RFU LRRC4B (11730491_at) / Fold change /veh LRRC4B (11730491_at) / RFU GIMAP4 (11747438_a_at) / Fold change /veh GIMAP4 (11747438_a_at) / RFU KRT8 (11758183_x_at) / Fold change /veh KRT8 (11758183_x_at) / RFU CNN1 (11734310_a_at) / Fold change /veh CNN1 (11734310_a_at) / RFU VPS37D (11726825_at) / Fold change /veh VPS37D (11726825_at) / RFU C10orf10 (11716522_x_at) / Fold change /veh C10orf10 (11716522_x_at) / RFU KIR2DL2 /// KIR2DL4 /// KIR2DL5A /// KIR2DL5B /// KIR2DS1 /// KIR2DS2 /// KIR2DS3 /// KIR2DS4 /// KIR3DL3 /// KIR3DL3 /// KIR3DS1 (11738374_at) / Fold change /veh KIR2DL2 /// KIR2DL4 /// KIR2DL5A /// KIR2DL5B /// KIR2DS1 /// KIR2DS2 /// KIR2DS3 /// KIR2DS4 /// KIR3DL3 /// KIR3DL3 /// KIR3DS1 (11738374_at) / RFU C1QL1 (11718748_at) / Fold change /veh C1QL1 (11718748_at) / RFU TMPRSS4 (11747572_a_at) / Fold change /veh TMPRSS4 (11747572_a_at) / RFU HAMP (11756126_x_at) / Fold change /veh HAMP (11756126_x_at) / RFU RNFT2 (11725882_a_at) / Fold change /veh RNFT2 (11725882_a_at) / RFU NR4A2 (11747474_a_at) / Fold change /veh NR4A2 (11747474_a_at) / RFU ABCC12 (11746883_a_at) / Fold change /veh ABCC12 (11746883_a_at) / RFU TMEM136 (11760407_x_at) / Fold change /veh TMEM136 (11760407_x_at) / RFU CLDN22 /// WWC2 (11732394_at) / Fold change /veh CLDN22 /// WWC2 (11732394_at) / RFU HLA-DPB1 (11760878_x_at) / Fold change /veh HLA-DPB1 (11760878_x_at) / RFU SPINT1 (11716480_a_at) / Fold change /veh SPINT1 (11716480_a_at) / RFU GAP43 (11754022_s_at) / Fold change /veh GAP43 (11754022_s_at) / RFU A4GNT (11735810_at) / Fold change /veh A4GNT (11735810_at) / RFU PRB3 (11715151_x_at) / Fold change /veh PRB3 (11715151_x_at) / RFU TUBB4B (11761932_at) / Fold change /veh TUBB4B (11761932_at) / RFU CAPN14 (11732068_a_at) / Fold change /veh CAPN14 (11732068_a_at) / RFU TMCC2 (11721928_a_at) / Fold change /veh TMCC2 (11721928_a_at) / RFU IRGQ (11745062_a_at) / Fold change /veh IRGQ (11745062_a_at) / RFU FAM174B (11720279_a_at) / Fold change /veh FAM174B (11720279_a_at) / RFU TMPRSS4 (11748680_a_at) / Fold change /veh TMPRSS4 (11748680_a_at) / RFU FAM212B (11763350_a_at) / Fold change /veh FAM212B (11763350_a_at) / RFU PLEKHG5 (11743358_a_at) / Fold change /veh PLEKHG5 (11743358_a_at) / RFU ZSCAN30 (11745921_a_at) / Fold change /veh ZSCAN30 (11745921_a_at) / RFU CMKLR1 (11741424_a_at) / Fold change /veh CMKLR1 (11741424_a_at) / RFU LOC101060620 /// MAPK8IP1 (11723275_at) / Fold change /veh LOC101060620 /// MAPK8IP1 (11723275_at) / RFU SPTSSB (11747773_x_at) / Fold change /veh SPTSSB (11747773_x_at) / RFU PRSS12 (11739890_at) / Fold change /veh PRSS12 (11739890_at) / RFU BIN1 (11741810_x_at) / Fold change /veh BIN1 (11741810_x_at) / RFU WNT11 (11732464_a_at) / Fold change /veh WNT11 (11732464_a_at) / RFU C10orf10 (11716521_a_at) / Fold change /veh C10orf10 (11716521_a_at) / RFU C5orf56 (11738089_at) / Fold change /veh C5orf56 (11738089_at) / RFU CYB561 (11721691_x_at) / Fold change /veh CYB561 (11721691_x_at) / RFU ANKRD19P (11752326_a_at) / Fold change /veh ANKRD19P (11752326_a_at) / RFU OR2T12 /// OR2T33 /// OR2T8 (11738714_s_at) / Fold change /veh OR2T12 /// OR2T33 /// OR2T8 (11738714_s_at) / RFU VCAN (11748164_a_at) / Fold change /veh VCAN (11748164_a_at) / RFU JSRP1 (11732532_at) / Fold change /veh JSRP1 (11732532_at) / RFU KRTAP10-11 (11738290_x_at) / Fold change /veh KRTAP10-11 (11738290_x_at) / RFU MYO3A (11730013_a_at) / Fold change /veh MYO3A (11730013_a_at) / RFU EBF3 (11725865_a_at) / Fold change /veh EBF3 (11725865_a_at) / RFU CAMK2N1 (11719241_x_at) / Fold change /veh CAMK2N1 (11719241_x_at) / RFU C5orf56 (11738088_a_at) / Fold change /veh C5orf56 (11738088_a_at) / RFU OLFML3 (11715873_a_at) / Fold change /veh OLFML3 (11715873_a_at) / RFU LOC100653217 /// NTM (11731650_a_at) / Fold change /veh LOC100653217 /// NTM (11731650_a_at) / RFU MAPK11 (11762145_a_at) / Fold change /veh MAPK11 (11762145_a_at) / RFU FIZ1 (11724087_x_at) / Fold change /veh FIZ1 (11724087_x_at) / RFU OASL (11726364_x_at) / Fold change /veh OASL (11726364_x_at) / RFU SOX15 (11748057_x_at) / Fold change /veh SOX15 (11748057_x_at) / RFU CD79A (11719716_a_at) / Fold change /veh CD79A (11719716_a_at) / RFU HIST1H1D (11736915_at) / Fold change /veh HIST1H1D (11736915_at) / RFU CASKIN2 (11723855_a_at) / Fold change /veh CASKIN2 (11723855_a_at) / RFU LOC730098 (11760151_x_at) / Fold change /veh LOC730098 (11760151_x_at) / RFU OR4N2 (11742367_at) / Fold change /veh OR4N2 (11742367_at) / RFU PRRT2 (11749266_a_at) / Fold change /veh PRRT2 (11749266_a_at) / RFU SNX32 (11753110_a_at) / Fold change /veh SNX32 (11753110_a_at) / RFU CDHR5 (11726645_a_at) / Fold change /veh CDHR5 (11726645_a_at) / RFU RCAN1 (11760418_a_at) / Fold change /veh RCAN1 (11760418_a_at) / RFU FAM167A (11723789_a_at) / Fold change /veh FAM167A (11723789_a_at) / RFU FAM26E (11764081_at) / Fold change /veh FAM26E (11764081_at) / RFU ISYNA1 (11749810_s_at) / Fold change /veh ISYNA1 (11749810_s_at) / RFU ACY1 (11761880_at) / Fold change /veh ACY1 (11761880_at) / RFU 11764098_at / Fold change /veh 11764098_at / RFU SAMD14 (11745864_x_at) / Fold change /veh SAMD14 (11745864_x_at) / RFU NPB (11741838_a_at) / Fold change /veh NPB (11741838_a_at) / RFU TMPRSS6 (11731388_a_at) / Fold change /veh TMPRSS6 (11731388_a_at) / RFU KRTAP10-2 (11738614_at) / Fold change /veh KRTAP10-2 (11738614_at) / RFU ARHGAP8 /// PRR5-ARHGAP8 (11727945_x_at) / Fold change /veh ARHGAP8 /// PRR5-ARHGAP8 (11727945_x_at) / RFU KRTAP5-7 /// NADSYN1 (11734609_at) / Fold change /veh KRTAP5-7 /// NADSYN1 (11734609_at) / RFU RASL12 (11751679_a_at) / Fold change /veh RASL12 (11751679_a_at) / RFU CDKN2B (11736163_a_at) / Fold change /veh CDKN2B (11736163_a_at) / RFU PRF1 (11729649_at) / Fold change /veh PRF1 (11729649_at) / RFU, ZNF638 /// ZNF638-IT1 / Fold change vs veh, ZNF638 /// ZNF638-IT1 / RFU, PANK3 / Fold change vs veh, PANK3 / RFU, SH3YL1 / Fold change vs veh, SH3YL1 / RFU, ZEB2 / Fold change vs veh, ZEB2 / RFU, NRIP1 / Fold change vs veh, NRIP1 / RFU, PTTG1IP / Fold change vs veh, PTTG1IP / RFU, CAPN2 / Fold change vs veh, CAPN2 / RFU, MED14 / Fold change vs veh, MED14 / RFU, SNORA58 / Fold change vs veh, SNORA58 / RFU, C1orf63 / Fold change vs veh, C1orf63 / RFU, LRRFIP1 / Fold change vs veh, LRRFIP1 / RFU, NDUFAF7 / Fold change vs veh, NDUFAF7 / RFU, SLC12A2 / Fold change vs veh, SLC12A2 / RFU, IBTK / Fold change vs veh, IBTK / RFU, ESF1 / Fold change vs veh, ESF1 / Fold change vs veh, TMEM50B / RFU, TAOK1 / Fold change vs veh, TAOK1 / RFU, ACBD3 / Fold change vs veh, ACBD3 / RFU, TMA16 / Fold change vs veh, TMA16 / RFU, RWDD3 / Fold change vs veh, RWDD3 / RFU, BCAT1 / Fold change vs veh, BCAT1 / RFU, EDEM3 / Fold change vs veh, EDEM3 / RFU, TMEM33 / Fold change vs veh, TMEM33 / RFU, WDR75 / Fold change vs veh, WDR75 / RFU, AHCTF1 / Fold change vs veh, AHCTF1 / RFU, TFRC / Fold change vs veh, TFRC / RFU, ZDHHC17 / Fold change vs veh, ZDHHC17 / RFU, NOM1 / Fold change vs veh, NOM1 / RFU, ARL8B / Fold change vs veh, ARL8B / RFU, ZBTB11 / Fold change vs veh, ZBTB11 / RFU, TAMM41 / Fold change vs veh, TAMM41 / RFU, KIAA1704 /// LOC100996395 / Fold change vs veh, KIAA1704 /// LOC100996395 / RFU, ING1 / Fold change vs veh, ING1 / RFU, TRMT61B / Fold change vs veh, TRMT61B / RFU, FUBP3 / Fold change vs veh, FUBP3 / RFU, TP53 / Fold change vs veh, TP53 / RFU, TNKS2 / Fold change vs veh, TNKS2 / RFU, ZFP14 / Fold change vs veh, ZFP14 / RFU, ACTR2 / Fold change vs veh, ACTR2 / RFU, PPP3R1 / Fold change vs veh, PPP3R1 / RFU, PIK3R1 / Fold change vs veh, PIK3R1 / RFU, HNRNPA1 / Fold change vs veh, HNRNPA1 / RFU, RNF170 / Fold change vs veh, RNF170 / RFU, ZNF28 / Fold change vs veh, ZNF28 / RFU, RNGTT / Fold change vs veh, RNGTT / RFU, OGT / Fold change vs veh, OGT / RFU, BRD1 / Fold change vs veh, BRD1 / RFU, MARS / Fold change vs veh, MARS / RFU, ZNF655 / Fold change vs veh, ZNF655 / RFU, FAHD1 / Fold change vs veh, FAHD1 / RFU, BDP1 / Fold change vs veh, BDP1 / RFU, LRRCC1 / Fold change vs veh, LRRCC1 / RFU, ARID1A / Fold change vs veh, ARID1A / RFU, ZNF146 / Fold change vs veh, ZNF146 / RFU, ZNF330 / Fold change vs veh, ZNF330 / RFU, GPN3 / Fold change vs veh, GPN3 / RFU, C9orf123 / Fold change vs veh, C9orf123 / RFU, N4BP2L2 / Fold change vs veh, N4BP2L2 / RFU, ARFIP1 / Fold change vs veh, ARFIP1 / RFU, FAM179B / Fold change vs veh, FAM179B / RFU, BCL10 / Fold change vs veh, BCL10 / RFU, UHRF1BP1L / Fold change vs veh, UHRF1BP1L / RFU, BET1 / Fold change vs veh, BET1 / RFU, CNOT2 / Fold change vs veh, CNOT2 / RFU, ZNF268 / Fold change vs veh, ZNF268 / Fold change vs veh, ZNF507 / RFU, DGCR2 / Fold change vs veh, DGCR2 / RFU, WDSUB1 / Fold change vs veh, WDSUB1 / Fold change vs veh, HSP90B1 /// MIR3652 / RFU, ADSS / Fold change vs veh, ADSS / RFU, GK / Fold change vs veh, GK / RFU, ZNF148 / Fold change vs veh, ZNF148 / RFU, TAF9 / Fold change vs veh, TAF9 / RFU, SLC1A5 / Fold change vs veh, SLC1A5 / RFU, SLMO2 / Fold change vs veh, SLMO2 / RFU, ABCC4 / Fold change vs veh, ABCC4 / RFU, LOC101060439 /// RAP1B / Fold change vs veh, LOC101060439 /// RAP1B / RFU, RFX7 / Fold change vs veh, RFX7 / RFU, GTPBP10 / Fold change vs veh, GTPBP10 / RFU, CNEP1R1 / Fold change vs veh, CNEP1R1 / RFU, BIVM-ERCC5 /// ERCC5 / Fold change vs veh, BIVM-ERCC5 /// ERCC5 / RFU, ILF3 / Fold change vs veh, ILF3 / RFU 11762660_at / Fold change /veh 11762660_at / RFU VCAN (11757783_s_at) / Fold change /veh VCAN (11757783_s_at) / RFU DDX43 (11728927_at) / Fold change /veh DDX43 (11728927_at) / RFU KRT8 (11758188_x_at) / Fold change /veh KRT8 (11758188_x_at) / RFU NKD1 (11759106_at) / Fold change /veh NKD1 (11759106_at) / RFU SRD5A1 (11742802_a_at) / Fold change /veh SRD5A1 (11742802_a_at) / RFU TPSAB1 /// TPSB2 (11721975_s_at) / Fold change /veh TPSAB1 /// TPSB2 (11721975_s_at) / RFU GSTM3 (11746129_a_at) / Fold change /veh GSTM3 (11746129_a_at) / RFU IL23R (11737362_x_at) / Fold change /veh IL23R (11737362_x_at) / RFU TMEM51 (11727254_a_at) / Fold change /veh TMEM51 (11727254_a_at) / RFU PIWIL2 (11732686_x_at) / Fold change /veh PIWIL2 (11732686_x_at) / RFU ORM1 (11744905_x_at) / Fold change /veh ORM1 (11744905_x_at) / RFU CCDC152 (11743942_at) / Fold change /veh CCDC152 (11743942_at) / RFU ECM1 (11717891_a_at) / Fold change /veh ECM1 (11717891_a_at) / RFU IL23R (11748794_a_at) / Fold change /veh IL23R (11748794_a_at) / RFU TNFAIP8L3 (11732012_x_at) / Fold change /veh TNFAIP8L3 (11732012_x_at) / RFU MBOAT4 (11741988_at) / Fold change /veh MBOAT4 (11741988_at) / RFU 11764193_at / Fold change /veh 11764193_at / RFU TMEM53 (11763286_at) / Fold change /veh TMEM53 (11763286_at) / RFU MAGEB2 (11727129_at) / Fold change /veh MAGEB2 (11727129_at) / RFU TMEM200A (11744735_a_at) / Fold change /veh TMEM200A (11744735_a_at) / RFU CCDC152 (11751479_a_at) / Fold change /veh CCDC152 (11751479_a_at) / RFU FAM211A (11726209_a_at) / Fold change /veh FAM211A (11726209_a_at) / RFU RGS16 (11746705_a_at) / Fold change /veh RGS16 (11746705_a_at) / RFU VCAN (11755009_s_at) / Fold change /veh VCAN (11755009_s_at) / RFU RHOB (11743442_s_at) / Fold change /veh RHOB (11743442_s_at) / RFU RGS16 (11720943_a_at) / Fold change /veh RGS16 (11720943_a_at) / RFU RGS16 (11720944_at) / Fold change /veh RGS16 (11720944_at) / RFU, VPS4B / Fold change vs veh, VPS4B / RFU, CREB1 / Fold change vs veh, CREB1 / RFU, DNAJC13 / Fold change vs veh, DNAJC13 / RFU, GNAQ / Fold change vs veh, GNAQ / RFU, CDK5R1 / Fold change vs veh, CDK5R1 / RFU, ZRANB3 / Fold change vs veh, ZRANB3 / RFU, CUL4A / Fold change vs veh, CUL4A / RFU, CCNY / Fold change vs veh, CCNY / RFU, UFL1 / Fold change vs veh, UFL1 / RFU, COG3 / Fold change vs veh, COG3 / RFU, DIAPH2 / Fold change vs veh, DIAPH2 / RFU, SKA2 / Fold change vs veh, SKA2 / RFU, AFF3 / Fold change vs veh, AFF3 / RFU, LMF1 / Fold change vs veh, LMF1 / RFU, IPO11 / Fold change vs veh, IPO11 / RFU, DFFB / Fold change vs veh, DFFB / RFU, FOXP1 / Fold change vs veh, FOXP1 / RFU, CARD8 / Fold change vs veh, CARD8 / RFU, STRN3 / Fold change vs veh, STRN3 / RFU, ADK / Fold change vs veh, ADK / RFU, RASSF2 / Fold change vs veh, RASSF2 / RFU, WIPF1 / Fold change vs veh, WIPF1 / RFU, LARP1B / Fold change vs veh, LARP1B / RFU, RASA1 / Fold change vs veh, RASA1 / RFU, RB1 / Fold change vs veh, RB1 / RFU, PPFIA1 / Fold change vs veh, PPFIA1 / RFU, MAT2A / Fold change vs veh, MAT2A / RFU, CCT5 / Fold change vs veh, CCT5 / RFU, WDR92 / Fold change vs veh, WDR92 / RFU, CUX1 / Fold change vs veh, CUX1 / RFU, TTC7A / Fold change vs veh, TTC7A / RFU, TMEM135 / Fold change vs veh, TMEM135 / RFU, DEPTOR / Fold change vs veh, DEPTOR / RFU, CPM / Fold change vs veh, CPM / RFU, DNAJB6 / Fold change vs veh, DNAJB6 / RFU, CACNA2D3 / Fold change vs veh, CACNA2D3 / RFU, DTX4 / Fold change vs veh, DTX4 / RFU, TFCP2 / Fold change vs veh, TFCP2 / RFU, GMCL1 /// GMCL1P1 / Fold change vs veh, GMCL1 /// GMCL1P1 / RFU, AEBP2 / Fold change vs veh, AEBP2 / RFU, SNHG1 /// SNORD22 /// SNORD25 /// SNORD26 /// SNORD27 /// SNORD28 /// SNORD29 /// SNORD31 / Fold change vs veh, SNHG1 /// SNORD22 /// SNORD25 /// SNORD26 /// SNORD27 /// SNORD28 /// SNORD29 /// SNORD31 / Fold change (Aza/veh), C12orf56 (ProbeSet 11735607_a_at) / Fold change (ACY-1035/veh), C12orf56 (ProbeSet 11735607_a_at) / Fold change (Aza/veh), FGFR1OP (ProbeSet 11751329_s_at) / Fold change (ACY-1035/veh), FGFR1OP (ProbeSet 11751329_s_at) / Fold change (Aza/veh), VPS36 (ProbeSet 11739960_a_at) / Fold change (ACY-1035/veh), VPS36 (ProbeSet 11739960_a_at) / RFU SYPL1 (11715823_x_at) / Fold change /veh SYPL1 (11715823_x_at) / RFU IGFBP7 (11715501_s_at) / Fold change /veh IGFBP7 (11715501_s_at) / RFU REEP3 (11722064_at) / Fold change /veh REEP3 (11722064_at) / RFU IGLL1 (11728026_x_at) / Fold change /veh IGLL1 (11728026_x_at): dose or concentration left out as unconfirmed
Settings: ProbeSet 11759095_at; LIST D

## Nc1ncn([C@@H]2O[C@H](CO)[C@@H](O)[C@H]2O)c(=O)n1 [azacitidine]
  Fold change vs veh, GNAQ: 0.81
